Patent US10221182B2, “3,3-difluoro-piperidine derivatives as NR2B NMDA receptor antagonists” (Rugen Holdings (Cayman) Limited, priority 2015, dated 2019)

Columns and labels:
human NR1/NR2B = human NR1/NR2B (Homo sapiens (Human), UniProt Q05586+Q13224); assay: NR2B antagonist activity, Fluo-4 calcium influx assay in HEK293 cells; format: cell-based; details: hNR2B IC50, HEK293 cells expressing NR1/NR2B; glutamate 100 μM, glycine 50 μM
Procedure: (§1) Activation of the NR2A or NR2B subtype of NMDA receptor with glutamate as an agonist and glycine co-agonist on these cells results in calcium influx, which can be monitored with fluorescent indicator Fluo-4.
(§2) For experiments, the cells were seeded onto poly-D-lysine-coated 96-well black plates with clear bottom (Corning) at a density of ˜50,000 cells/well. After overnight culture, the growth medium was removed from the wells and the cells were incubated at 37° C. for 60 min in Hanks buffer containing 4 μM fluo-4-AM (Invitrogen) and 0.1% bovine serum albumin (BSA). After dye-loading, the cells were washed three times with Hanks buffer and incubated for 10 min at room temperature with various concentrations of test compounds prepared in Hanks buffer with 0.1% BSA. The cell plates were placed onto FDSS μCell fluorescence reader (Hamamatsu). After 20 sec reading of background fluorescence, agonist glutamate at final 100 μM and co-agonist glycine at final 50 μM were added to the cells to activate the receptor, and the resulting fluorescence changes were recorded and quantified. Based on the changes in fluorescence intensity, the pharmacological effect of test compounds were analyzed and the IC50 values derived from a non-linear least squares fitting of the concentration-dependent response to a standard logistic equation using Prism (Graphpad, Inc): Amplitude=Max Amplitude/(1+([…])^n).

hERG channel = hERG channel (Homo sapiens (Human), UniProt Q12809)
human NR1/NR2A = human NR1/NR2A (Homo sapiens (Human), UniProt Q05586+Q12879); assay: NR2A antagonist activity, Fluo-4 calcium influx assay in HEK293 cells; format: cell-based
Procedure: as §1, §2

mice = assay: Forced swim test (FST); format: in vivo; details: male mice, intraperitoneal; imipramine 32 mg/kg IP
Procedure: Procedure. Male mice (strain NLMN) weighing 25-35 g were used for testing. All animals were housed in a temperature (22-24° C.) and humidity (50-60%) controlled environment with free access to food and water on a 12-hour light-dark cycle. Test compounds were dissolved in 0.5% dimethylsulfoxide, 4% hydroxypropyl-β-cyclodextrin water to generate the appropriate dosing solution. Drugs were administered by intraperitoneal injection at a dose volume of 10 mL/kg. Testing was initiated 20-60 minutes after dosing. […] Mice were placed in a white plastic cylinder 20 cm high with a diameter of 21 cm containing 10 cm of water at 25±2° C. The mice were videotaped for 6 minutes, and the last 4 minutes of video were analyzed by a blinded observer off-line. The observer judged the animal to be immobile when it ceased all activity (struggling, swimming, jumping etc.) and floated passively atop the water. The amount of time each animal spent in the immobile state was recorded and used for statistical analysis of compound effect. Group differences were evaluated by student's t-test or one-way ANOVA followed by post-hoc Dunnett's test.

Sequence of hERG channel (Q12809 whole entry): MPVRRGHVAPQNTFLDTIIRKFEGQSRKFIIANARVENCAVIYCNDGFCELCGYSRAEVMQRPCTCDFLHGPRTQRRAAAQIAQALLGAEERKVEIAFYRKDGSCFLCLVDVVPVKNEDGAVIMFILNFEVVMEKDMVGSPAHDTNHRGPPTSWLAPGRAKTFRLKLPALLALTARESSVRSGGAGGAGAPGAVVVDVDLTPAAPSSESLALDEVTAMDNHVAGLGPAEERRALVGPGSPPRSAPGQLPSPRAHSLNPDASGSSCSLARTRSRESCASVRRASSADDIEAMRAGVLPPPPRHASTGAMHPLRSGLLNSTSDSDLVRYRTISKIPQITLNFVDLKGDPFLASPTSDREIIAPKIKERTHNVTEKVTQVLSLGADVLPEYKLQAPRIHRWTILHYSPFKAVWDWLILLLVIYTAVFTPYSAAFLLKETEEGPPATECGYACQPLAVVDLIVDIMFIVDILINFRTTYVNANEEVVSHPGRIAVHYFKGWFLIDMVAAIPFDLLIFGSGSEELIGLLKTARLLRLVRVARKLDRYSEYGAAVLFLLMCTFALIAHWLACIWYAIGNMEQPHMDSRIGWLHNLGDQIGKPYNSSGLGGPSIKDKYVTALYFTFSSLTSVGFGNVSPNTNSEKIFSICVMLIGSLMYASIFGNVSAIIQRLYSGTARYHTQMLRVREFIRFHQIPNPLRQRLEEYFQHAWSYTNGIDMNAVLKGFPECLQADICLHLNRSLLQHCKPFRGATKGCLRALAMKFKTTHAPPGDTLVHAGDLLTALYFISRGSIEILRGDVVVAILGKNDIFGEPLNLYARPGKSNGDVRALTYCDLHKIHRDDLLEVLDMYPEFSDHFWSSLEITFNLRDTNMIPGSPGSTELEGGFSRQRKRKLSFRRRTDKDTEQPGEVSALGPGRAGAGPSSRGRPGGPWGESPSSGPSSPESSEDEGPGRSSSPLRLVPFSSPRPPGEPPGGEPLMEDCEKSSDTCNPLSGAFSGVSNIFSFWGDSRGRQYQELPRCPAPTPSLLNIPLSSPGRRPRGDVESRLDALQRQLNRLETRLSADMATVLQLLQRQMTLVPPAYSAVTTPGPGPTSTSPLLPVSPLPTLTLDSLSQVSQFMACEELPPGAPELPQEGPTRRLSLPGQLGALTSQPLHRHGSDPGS
Sequence of human NR1/NR2A (Q12879 23-1464, other chains not shown): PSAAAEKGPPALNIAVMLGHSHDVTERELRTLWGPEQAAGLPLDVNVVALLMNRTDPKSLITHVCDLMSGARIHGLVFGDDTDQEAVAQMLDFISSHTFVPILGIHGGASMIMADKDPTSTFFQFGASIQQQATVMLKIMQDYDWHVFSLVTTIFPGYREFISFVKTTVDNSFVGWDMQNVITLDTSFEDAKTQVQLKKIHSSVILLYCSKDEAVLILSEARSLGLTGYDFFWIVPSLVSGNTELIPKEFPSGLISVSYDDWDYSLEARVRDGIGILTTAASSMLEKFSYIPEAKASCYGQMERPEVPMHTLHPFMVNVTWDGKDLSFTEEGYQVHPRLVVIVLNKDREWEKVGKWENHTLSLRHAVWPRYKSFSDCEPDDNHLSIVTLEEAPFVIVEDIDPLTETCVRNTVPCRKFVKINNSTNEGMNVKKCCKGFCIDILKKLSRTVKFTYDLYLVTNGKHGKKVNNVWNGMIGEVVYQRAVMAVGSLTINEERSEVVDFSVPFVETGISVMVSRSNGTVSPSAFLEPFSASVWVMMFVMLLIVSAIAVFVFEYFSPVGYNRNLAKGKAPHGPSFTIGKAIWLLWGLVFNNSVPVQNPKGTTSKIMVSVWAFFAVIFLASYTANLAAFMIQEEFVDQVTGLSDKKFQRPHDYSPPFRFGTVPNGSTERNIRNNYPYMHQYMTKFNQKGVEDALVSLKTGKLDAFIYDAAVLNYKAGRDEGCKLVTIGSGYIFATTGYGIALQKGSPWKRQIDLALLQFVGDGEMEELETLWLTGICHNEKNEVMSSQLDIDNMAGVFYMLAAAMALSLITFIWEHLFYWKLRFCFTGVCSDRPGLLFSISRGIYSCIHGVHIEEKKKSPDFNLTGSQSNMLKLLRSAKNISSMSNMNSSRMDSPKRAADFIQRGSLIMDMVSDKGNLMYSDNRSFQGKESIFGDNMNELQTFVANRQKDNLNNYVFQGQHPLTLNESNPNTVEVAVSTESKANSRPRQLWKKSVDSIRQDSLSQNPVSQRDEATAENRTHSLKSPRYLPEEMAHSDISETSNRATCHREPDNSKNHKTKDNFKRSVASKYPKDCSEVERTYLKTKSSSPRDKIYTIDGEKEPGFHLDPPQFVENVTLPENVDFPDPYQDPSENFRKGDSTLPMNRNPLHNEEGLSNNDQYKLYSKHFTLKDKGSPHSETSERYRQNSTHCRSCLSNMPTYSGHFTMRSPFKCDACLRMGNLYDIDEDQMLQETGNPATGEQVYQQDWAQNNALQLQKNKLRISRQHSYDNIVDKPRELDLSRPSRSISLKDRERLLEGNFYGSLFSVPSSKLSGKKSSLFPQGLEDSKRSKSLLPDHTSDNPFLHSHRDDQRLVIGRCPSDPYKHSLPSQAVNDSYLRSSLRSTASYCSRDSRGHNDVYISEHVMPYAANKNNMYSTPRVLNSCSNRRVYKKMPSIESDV
Sequence of human NR1/NR2B (Q13224 27-1484, other chains not shown): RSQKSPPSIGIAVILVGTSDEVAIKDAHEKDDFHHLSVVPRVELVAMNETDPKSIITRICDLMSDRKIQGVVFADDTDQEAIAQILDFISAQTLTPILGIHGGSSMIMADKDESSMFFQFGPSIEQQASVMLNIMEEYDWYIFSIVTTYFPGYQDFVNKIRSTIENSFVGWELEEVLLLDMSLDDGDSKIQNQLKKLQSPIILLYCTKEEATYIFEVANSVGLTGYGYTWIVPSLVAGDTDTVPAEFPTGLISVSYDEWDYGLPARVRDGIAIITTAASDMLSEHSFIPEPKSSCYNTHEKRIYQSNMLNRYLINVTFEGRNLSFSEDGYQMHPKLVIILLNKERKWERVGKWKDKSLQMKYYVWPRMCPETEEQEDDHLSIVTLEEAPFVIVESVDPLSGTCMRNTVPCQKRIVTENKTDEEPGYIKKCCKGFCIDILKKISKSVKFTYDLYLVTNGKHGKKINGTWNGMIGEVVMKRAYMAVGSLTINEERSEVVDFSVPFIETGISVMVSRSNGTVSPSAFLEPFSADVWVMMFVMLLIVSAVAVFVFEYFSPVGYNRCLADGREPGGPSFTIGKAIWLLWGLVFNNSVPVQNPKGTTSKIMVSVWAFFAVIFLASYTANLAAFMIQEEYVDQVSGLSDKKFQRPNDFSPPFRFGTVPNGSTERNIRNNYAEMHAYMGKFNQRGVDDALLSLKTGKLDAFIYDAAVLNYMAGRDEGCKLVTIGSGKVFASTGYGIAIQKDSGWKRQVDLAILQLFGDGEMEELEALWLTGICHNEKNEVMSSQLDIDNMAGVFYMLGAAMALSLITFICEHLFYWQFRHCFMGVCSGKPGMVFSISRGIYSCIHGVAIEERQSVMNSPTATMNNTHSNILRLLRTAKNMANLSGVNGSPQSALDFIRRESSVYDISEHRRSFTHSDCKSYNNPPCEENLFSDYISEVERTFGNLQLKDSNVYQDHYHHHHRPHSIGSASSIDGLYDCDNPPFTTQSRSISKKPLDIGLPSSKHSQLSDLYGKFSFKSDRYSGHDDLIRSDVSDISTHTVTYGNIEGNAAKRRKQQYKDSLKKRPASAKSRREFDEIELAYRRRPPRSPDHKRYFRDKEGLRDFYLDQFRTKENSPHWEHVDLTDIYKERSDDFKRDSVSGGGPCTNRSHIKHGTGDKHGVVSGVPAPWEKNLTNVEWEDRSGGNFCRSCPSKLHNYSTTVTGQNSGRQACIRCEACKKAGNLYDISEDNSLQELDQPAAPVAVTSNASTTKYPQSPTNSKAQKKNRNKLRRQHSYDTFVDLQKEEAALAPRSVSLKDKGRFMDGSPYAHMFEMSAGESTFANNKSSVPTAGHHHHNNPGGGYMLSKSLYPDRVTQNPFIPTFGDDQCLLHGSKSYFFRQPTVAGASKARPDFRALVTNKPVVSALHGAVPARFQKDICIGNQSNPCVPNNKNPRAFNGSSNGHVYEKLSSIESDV

SMILES	IC50 (human NR1/NR2B) [µM]	hERG @ 10 μM (hERG channel) [%]	IC50 (human NR1/NR2A) [µM]	antidepressant activity (immobility time) (mice)
CN(c1ncnc2[nH]ncc12)C1CCN(CCc2ccc(C(F)(F)F)cc2)CC1(F)F (racemic) [C-1.33]	0.103	59	> 10	
CN(C)CCCN1c2ccccc2CCc2ccccc21 [imipramine]				showed the expected antidepressant activity
